Source: ChEMBL document CHEMBL1127614, “2,6-Disubstituted aryl carboxylic acids, leaving groups "par excellence" for benzisothiazolone inhibitors of human leukocyte elastase” (J Med Chem, 1994)

What follows are molecules tested against T1, Neutrophil elastase (Homo sapiens, UniProt P08246) (assay: In vitro inhibition constant of human leukocyte elastase.).
T1 sequence (P08246 whole entry): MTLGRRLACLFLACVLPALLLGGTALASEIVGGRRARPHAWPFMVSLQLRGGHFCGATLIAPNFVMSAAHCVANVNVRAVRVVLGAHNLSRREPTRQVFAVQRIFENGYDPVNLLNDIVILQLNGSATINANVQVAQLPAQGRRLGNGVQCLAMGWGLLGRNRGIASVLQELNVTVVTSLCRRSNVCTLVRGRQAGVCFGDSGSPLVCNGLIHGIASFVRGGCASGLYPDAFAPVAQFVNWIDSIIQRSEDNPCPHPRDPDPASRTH

Row | Ki | Compound
1 | 0.03 nM | CC(C)c1cccc2c1C(=O)N(COC(=O)c1c(Cl)cccc1Cl)S2(=O)=O
2 | 31 nM | O=C(OCN1C(=O)c2ccccc2S1(=O)=O)c1ccccc1
3 | 1 nM | O=C(OCN1C(=O)c2c(-c3ccccc3)cccc2S1(=O)=O)c1c(Cl)cccc1Cl
4 | 0.17 nM | CCc1cccc2c1C(=O)N(COC(=O)c1c(Cl)cccc1Cl)S2(=O)=O
5 | 102 nM | CC(=O)OCN1C(=O)c2ccccc2S1(=O)=O
6 | 37 nM | O=C(OCN1C(=O)c2ccccc2S1(=O)=O)c1c(C(F)(F)F)cccc1C(F)(F)F
7 | 18 nM | CC(=O)Nc1cccc(Cl)c1C(=O)OCN1C(=O)c2ccccc2S1(=O)=O
8 | 8 nM | COc1cccc(OC)c1C(=O)OCN1C(=O)c2ccccc2S1(=O)=O
9 | 8.5 nM | O=C(OCN1C(=O)c2ccccc2S1(=O)=O)c1c(Br)cccc1Br
10 | 8 nM | O=C(OCN1C(=O)c2ccccc2S1(=O)=O)c1c(F)cccc1F
11 | 4 nM | Cc1cccc(C)c1C(=O)OCN1C(=O)c2ccccc2S1(=O)=O
12 | 2 nM | Cc1cccc2c1C(=O)N(COC(=O)c1c(Cl)cccc1Cl)S2(=O)=O
13 | 26 nM | CC(C)(C)c1cccc2c1C(=O)N(COC(=O)c1c(Cl)cccc1Cl)S2(=O)=O
14 | 0.06 nM | CCC(C)c1cccc2c1C(=O)N(COC(=O)c1c(Cl)cccc1Cl)S2(=O)=O (stereo not given)

Each molecule was assayed on Cricetinae gen. sp. (assay: In Vivo evaluation of the Compound for the percentage inhibition of HLE at 60 mg/kg dose by intravenous administration).
Type: functional, Cricetulus griseus

Row | Compound | inhibition in vivo at 60 mg/kg
15 | CC(C)c1cccc2c1C(=O)N(COC(=O)c1c(Cl)cccc1Cl)S2(=O)=O | 47%
